Assays:
[1] = system: A549 (human lung carcinoma); assay: Test on cell proliferation (MTT test), A549; format: cell-based; conditions: 72 hours
Protocol: (§1) a. Eight tumoral cell lines are used in this study: L1210 (mouse lymphocytic leukemia), HCT15 and LOVO (cell lines of human colon adenocarcinoma), A549 (human lung carcinoma), A172, U373 et U87 (human glioblastoma). All these lines are obtained from the American Type Culture Collection (ATCC), Rockville, Md. The L1210 cell cultures in suspension are cultured in Dulbecco's modified Eagle's medium (DMEM) (BioWhitaker, Verviers, Belgium) together with 10% of foetal calf serum inactivated by heating, 2 mM of glutamine, 50 μg/ml of penicillin and 50 μg/ml of streptomycin. The HT29 cells are cultured in mono-layer cultures in a McCoy 5a medium (Gibco, Paisley, United Kingdom) together with 10% of foetal calf serum inactivated by heat plus 2 mM of glutamine and 50 μg/ml of gentamycin. The other cells are cultured in an Earle's modified essential medium (EMEM; Gibco, Paisley, United Kingdom) together with 5% foetal calf serum inactivated by heat, 2 mM of glutamine, 50 U/ml of penicillin and 50 μg/ml of streptomycin. All the cell lines are cultured at 37° C. in a humidified atmosphere containing 95% air and 5% CO2.
(§2) Inhibition of the tumor cell line proliferation is determined using an MTT test. 1500 L1210 cells in a culture medium (according to the needs of the cell medium) are seeded in a well of a micro-well plate (tissue culture level: 96 wells, flat bottom) 24 hours before treatment with the compounds to be tested. For these dose-response studies, the cells are incubated with each of the compounds to be tested or their corresponding solvent (controls) for 48 hours over a final concentration range of 1.10^−10 to 1.10^−4 M. All the compounds are dissolved just before use in dimethylsulphoxide (DMSO) at a concentration of 50 mM. Other dilutions of the medicaments are carried out in the culture medium. The final concentration of DMSO never exceeds 0.2% (v/v). As controls, the solutions of medicaments are replaced with the solvent which is diluted successively in the same way as the compounds to be tested.
(§3) After the incubation period, the labeling reagent MTT (3-[4,5-dimethylthiazol-2-yl]-2,5-diphenyltetrazolium bromide; Thiazol blue, Sigma M 565, Sigma, St Louis, Mo.) is added at a final concentration of 0.3 mg/ml to each well. The cells are incubated for 4 hours at 37° C. in a humidified atmosphere. This stage allows the mitochondrial dehydrogenase of the living cells to convert the yellow tetrazolium salt MTT into crimson formazan crystals. The supernatant part is eliminated and the formazan crystals formed are solubilized with DMSO. The resultant coloured solution is quantified by absorbance at 570 nm by using a multi-cuvette scanning spectrophotometer. The data concerning the proliferation is expressed as a percentage of living cells in the treated wells, divided by the living cells in the controls. Each point represents the average of three independent experiments, each experiment represents six determinations.
(§4) For the other cell lines (HCT15, LOVO, A549, A172, U373, U87), 1000 to 2000 cells are seeded in the well of a micro-well plate 24 hours before medicinal treatment. […]
(§5) The results are expressed as percentages of the calculated proliferation by the optical density (OD) of the cells treated with a medicament divided by the OD of the control cells (cells treated with DMSO). As represented in Table II, the compounds to be tested have inhibited the proliferation of cells in a dose-dependent manner.

U87 (human glioblastoma) = assay: Test on cell proliferation (MTT test), U87; format: cell-based; conditions: 72 hours
Protocol: as §1, §2, §3, §4, §5

## CCC(O)(CC(=O)O)c1cc2n(c(=O)c1CO)Cc1cc3ccccc3nc1-2 (stereo not shown) [Example 4, 3-hydroxy-3-[8-(hydroxymethyl)-9-oxo-9,11-dihydroindolizino [1,2-b]quinolin-7-yl]pentanoic acid]
[1]; 0.1 nM
  PERCENTAGE OF CELL PROLIFERATION: 71.00%
[1]; 1 nM
  PERCENTAGE OF CELL PROLIFERATION: 76.00%
[1]; 10 nM
  PERCENTAGE OF CELL PROLIFERATION: 71.00%
[1]; 100 nM
  PERCENTAGE OF CELL PROLIFERATION: 56.00%
[1]; 1 000 nM
  PERCENTAGE OF CELL PROLIFERATION: 36.00%
[1]; 10 000 nM
  PERCENTAGE OF CELL PROLIFERATION: 22.00%
[1]; 100 000 nM
  PERCENTAGE OF CELL PROLIFERATION: 12.00%
U87 (human glioblastoma); 0.1 nM
  PERCENTAGE OF CELL PROLIFERATION: 98.00%
U87 (human glioblastoma); 1 nM
  PERCENTAGE OF CELL PROLIFERATION: 101.00%
U87 (human glioblastoma); 10 nM
  PERCENTAGE OF CELL PROLIFERATION: 98.00%
U87 (human glioblastoma); 100 nM
  PERCENTAGE OF CELL PROLIFERATION: 74.00%
U87 (human glioblastoma); 1 000 nM
  PERCENTAGE OF CELL PROLIFERATION: 11.00%
U87 (human glioblastoma); 10 000 nM
  PERCENTAGE OF CELL PROLIFERATION: 6.00%
U87 (human glioblastoma); 100 000 nM
  PERCENTAGE OF CELL PROLIFERATION: 2.00%

## CCc1c2c(nc3ccccc13)-c1cc3c(c(=O)n1C2)COC(=O)CC3(O)CC (stereo not shown) [Example 9, 5,12-diethyl-5-hydroxy-1,4,5,13-tetrahydro-3H,15H-oxepino[3′,4′:6,7]indolizino[1,2-b]quinoline-3,15-dione]
[1]; 0.1 nM
  PERCENTAGE OF CELL PROLIFERATION: 91.00%
[1]; 1 nM
  PERCENTAGE OF CELL PROLIFERATION: 88.00%
[1]; 10 nM
  PERCENTAGE OF CELL PROLIFERATION: 50.00%
[1]; 100 nM
  PERCENTAGE OF CELL PROLIFERATION: 31.00%
[1]; 1 000 nM
  PERCENTAGE OF CELL PROLIFERATION: 23.00%
[1]; 10 000 nM
  PERCENTAGE OF CELL PROLIFERATION: 5.00%
[1]; 100 000 nM
  PERCENTAGE OF CELL PROLIFERATION: 3.00%
U87 (human glioblastoma); 0.1 nM
  PERCENTAGE OF CELL PROLIFERATION: 105.00%
U87 (human glioblastoma); 1 nM
  PERCENTAGE OF CELL PROLIFERATION: 72.00%
U87 (human glioblastoma); 10 nM
  PERCENTAGE OF CELL PROLIFERATION: 14.00%
U87 (human glioblastoma); 100 nM
  PERCENTAGE OF CELL PROLIFERATION: 7.00%
U87 (human glioblastoma); 1 000 nM
  PERCENTAGE OF CELL PROLIFERATION: 4.00%
U87 (human glioblastoma); 10 000 nM
  PERCENTAGE OF CELL PROLIFERATION: 2.00%
U87 (human glioblastoma); 100 000 nM
  PERCENTAGE OF CELL PROLIFERATION: 6.00%

## CCC1(O)CC(=O)OCc2c1cc1n(c2=O)Cc2cc3ccccc3nc2-1 (stereo not shown) [Example 3, 5-ethyl-5-hydroxy-1,4,5,13-tetrahydro-3H,15H-oxepino [3′,4′:6,7]indolizino[1,2-b]quinoline-3,15-dione]
[1]; 0.1 nM
  PERCENTAGE OF CELL PROLIFERATION: 132.00%
[1]; 1 nM
  PERCENTAGE OF CELL PROLIFERATION: 111.00%
[1]; 10 nM
  PERCENTAGE OF CELL PROLIFERATION: 75.00%
[1]; 100 nM
  PERCENTAGE OF CELL PROLIFERATION: 39.00%
[1]; 1 000 nM
  PERCENTAGE OF CELL PROLIFERATION: 35.00%
[1]; 10 000 nM
  PERCENTAGE OF CELL PROLIFERATION: 10.00%
[1]; 100 000 nM
  PERCENTAGE OF CELL PROLIFERATION: 11.00%
U87 (human glioblastoma); 0.1 nM
  PERCENTAGE OF CELL PROLIFERATION: 108.00%
U87 (human glioblastoma); 1 nM
  PERCENTAGE OF CELL PROLIFERATION: 85.00%
U87 (human glioblastoma); 10 nM
  PERCENTAGE OF CELL PROLIFERATION: 42.00%
U87 (human glioblastoma); 100 nM
  PERCENTAGE OF CELL PROLIFERATION: 23.00%
U87 (human glioblastoma); 1 000 nM
  PERCENTAGE OF CELL PROLIFERATION: 15.00%
U87 (human glioblastoma); 10 000 nM
  PERCENTAGE OF CELL PROLIFERATION: 5.00%
U87 (human glioblastoma); 100 000 nM
  PERCENTAGE OF CELL PROLIFERATION: 6.00%

## CCC1(O)CC(=O)OCc2c1cc1n(c2=O)Cc2cc3cc4c(cc3nc2-1)OCCO4 (stereo not shown) [Example 11, 8-ethyl-8-hydroxy-2,3,8,9,12,15-hexahydro-10H,13H-[1,4]dioxino [2,3-g]oxepino[3′,4′:6,7]indolizino[1,2-b]quinoline-10,13-dione]
[1]; 0.1 nM
  PERCENTAGE OF CELL PROLIFERATION: 82.00%
[1]; 1 nM
  PERCENTAGE OF CELL PROLIFERATION: 44.00%
[1]; 10 nM
  PERCENTAGE OF CELL PROLIFERATION: 29.00%
[1]; 100 nM
  PERCENTAGE OF CELL PROLIFERATION: 26.00%
[1]; 1 000 nM
  PERCENTAGE OF CELL PROLIFERATION: 4.00%
[1]; 10 000 nM
  PERCENTAGE OF CELL PROLIFERATION: 3.00%
[1]; 100 000 nM
  PERCENTAGE OF CELL PROLIFERATION: 2.00%
U87 (human glioblastoma); 0.1 nM
  PERCENTAGE OF CELL PROLIFERATION: 40.00%
U87 (human glioblastoma); 1 nM
  PERCENTAGE OF CELL PROLIFERATION: 21.00%
U87 (human glioblastoma); 10 nM
  PERCENTAGE OF CELL PROLIFERATION: 12.00%
U87 (human glioblastoma); 100 nM
  PERCENTAGE OF CELL PROLIFERATION: 6.00%
U87 (human glioblastoma); 1 000 nM
  PERCENTAGE OF CELL PROLIFERATION: 1.00%
U87 (human glioblastoma); 10 000 nM
  PERCENTAGE OF CELL PROLIFERATION: 1.00%
U87 (human glioblastoma); 100 000 nM
  PERCENTAGE OF CELL PROLIFERATION: 1.00%

## CCc1c2c(nc3ccccc13)-c1cc(C(O)(CC)CC(=O)O)c(CO)c(=O)n1C2 (stereo not shown) [Example 10, 3-[12-ethyl-8-(hydroxymethyl)-9-oxo-9,11-dihydroindolizino[1,2-b]quinolin-7-yl]-3-hydroxypentanoic acid]
[1]; 0.1 nM
  PERCENTAGE OF CELL PROLIFERATION: 71.00%
[1]; 1 nM
  PERCENTAGE OF CELL PROLIFERATION: 76.00%
[1]; 10 nM
  PERCENTAGE OF CELL PROLIFERATION: 71.00%
[1]; 100 nM
  PERCENTAGE OF CELL PROLIFERATION: 56.00%
[1]; 1 000 nM
  PERCENTAGE OF CELL PROLIFERATION: 36.00%
[1]; 10 000 nM
  PERCENTAGE OF CELL PROLIFERATION: 22.00%
[1]; 100 000 nM
  PERCENTAGE OF CELL PROLIFERATION: 7.00%
U87 (human glioblastoma); 0.1 nM
  PERCENTAGE OF CELL PROLIFERATION: 96.00%
U87 (human glioblastoma); 1 nM
  PERCENTAGE OF CELL PROLIFERATION: 79.00%
U87 (human glioblastoma); 10 nM
  PERCENTAGE OF CELL PROLIFERATION: 89.00%
U87 (human glioblastoma); 100 nM
  PERCENTAGE OF CELL PROLIFERATION: 17.00%
U87 (human glioblastoma); 1 000 nM
  PERCENTAGE OF CELL PROLIFERATION: 6.00%
U87 (human glioblastoma); 10 000 nM
  PERCENTAGE OF CELL PROLIFERATION: 5.00%
U87 (human glioblastoma); 100 000 nM
  PERCENTAGE OF CELL PROLIFERATION: 2.00%
